# Source: patent US20110086759A1, “CHEMICAL COMPOUNDS” (SYNGENTA CROP PROTECTION, INC., priority 2007, published 2011)
# Assays:
# Format in all cases: in vivo
# [1] = tested on: Alopecurus myosuroides (ALOMY); assay: Pre-emergence biological efficacy, glasshouse pot test; conditions: 312 h
# How it was run: (§1)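 Test compound, formulated in acetone/water (50:50) containing 0.5% Tween 20 and diluted into an aqueous spray, was applied at 1000 or 250 g/ha to pots sown one day earlier. Injury was rated after 13 days, 100 meaning total damage.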
# [2] = tested on: Amaranthus retoflexus (AMARE); assay: as above; conditions: Amaranthus retroflexus, 312 h
# How it was run: as §1
# [3] = tested on: Echinochloa crus-galli (ECHCG); assay: as above; conditions: 312 h
# How it was run: as §1
# [4] = tested on: Ipomea hederaceae (IPOHE); assay: as above; conditions: Ipomoea hederacea, 312 h
# How it was run: as §1
# [5] = tested on: Setaria faberi (SETFA); assay: as above; conditions: 312 h
# How it was run: as §1
# [6] = tested on: Solanum nigrum (SOLNI); assay: as above; conditions: 312 h
# How it was run: as §1
# [7] = tested on: Alopecurus myosuroides (ALOMY); assay: Post-emergence biological efficacy, glasshouse pot test; conditions: 312 h
# How it was run: (§2)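 Plants were sown in standard soil and grown 8 days in a glasshouse (24/16° C. day/night, 14 hours light, 65% humidity), then sprayed post-emergence at 1000 or 250 g/ha from acetone/water (50:50) with 0.5% Tween 20. Damage was scored visually after 13 days (0 = none, 100 = total).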
# [8] = tested on: Amaranthus retoflexus (AMARE); assay: as above; conditions: Amaranthus retroflexus, 312 h
# How it was run: as §2
# [9] = tested on: Echinochloa crus-galli (ECHCG); assay: as above; conditions: 312 h
# How it was run: as §2
# [10] = tested on: Ipomea hederaceae (IPOHE); assay: as above; conditions: Ipomoea hederacea, 312 h
# How it was run: as §2
# [11] = tested on: Setaria faberi (SETFA); assay: as above; conditions: 312 h
# How it was run: as §2
# [12] = tested on: Solanum nigrum (SOLNI); assay: as above; conditions: 312 h
# How it was run: as §2
# [13] = pre-emergence, rate 1,000 g/ha, evaluated after 13 days (100=total damage to plant; 0=no damage), read-out: Percentage damage caused to weed species, ALOMY
# [14] = pre-emergence, rate 1,000 g/ha, evaluated after 13 days (100=total damage to plant; 0=no damage), read-out: Percentage damage caused to weed species, AMARE
# [15] = pre-emergence, rate 1,000 g/ha, evaluated after 13 days (100=total damage to plant; 0=no damage), read-out: Percentage damage caused to weed species, ECHCG
# [16] = pre-emergence, rate 1,000 g/ha, evaluated after 13 days (100=total damage to plant; 0=no damage), read-out: Percentage damage caused to weed species, IPOHE
# [17] = pre-emergence, rate 1,000 g/ha, evaluated after 13 days (100=total damage to plant; 0=no damage), read-out: Percentage damage caused to weed species, SETFA
# [18] = pre-emergence, rate 1,000 g/ha, evaluated after 13 days (100=total damage to plant; 0=no damage), read-out: Percentage damage caused to weed species, SOLNI
# [19] = Rate 1,000 g/ha, post-emergence spray, evaluated after 13 days (100=total damage to plant; 0=no damage to plant), read-out: Percentage damage caused to weed species, post-emergence, ALOMY
# [20] = Rate 1,000 g/ha, post-emergence spray, evaluated after 13 days (100=total damage to plant; 0=no damage to plant), read-out: Percentage damage caused to weed species, post-emergence, AMARE
# [21] = Rate 1,000 g/ha, post-emergence spray, evaluated after 13 days (100=total damage to plant; 0=no damage to plant), read-out: Percentage damage caused to weed species, post-emergence, ECHCG
# [22] = Rate 1,000 g/ha, post-emergence spray, evaluated after 13 days (100=total damage to plant; 0=no damage to plant), read-out: Percentage damage caused to weed species, post-emergence, IPOHE
# [23] = Rate 1,000 g/ha, post-emergence spray, evaluated after 13 days (100=total damage to plant; 0=no damage to plant), read-out: Percentage damage caused to weed species, post-emergence, SETFA
# [24] = Rate 1,000 g/ha, post-emergence spray, evaluated after 13 days (100=total damage to plant; 0=no damage to plant), read-out: Percentage damage caused to weed species, post-emergence, SOLNI
# [25] = pre-emergence, 1,000 g/ha, evaluated after 13 days (100=total damage; 0=no damage), read-out: Percentage damage ALOMY
# [26] = pre-emergence, 1,000 g/ha, evaluated after 13 days (100=total damage; 0=no damage), read-out: Percentage damage AMARE
# [27] = pre-emergence, 1,000 g/ha, evaluated after 13 days (100=total damage; 0=no damage), read-out: Percentage damage ECHCG
# [28] = pre-emergence, 1,000 g/ha, evaluated after 13 days (100=total damage; 0=no damage), read-out: Percentage damage IPOHE
# [29] = pre-emergence, 1,000 g/ha, evaluated after 13 days (100=total damage; 0=no damage), read-out: Percentage damage SETFA
# [30] = pre-emergence, 1,000 g/ha, evaluated after 13 days (100=total damage; 0=no damage), read-out: Percentage damage SOLNI
# [31] = post-emergence, 1,000 g/ha, evaluated after 13 days (100=total damage; 0=no damage), read-out: Percentage damage caused to weed species, ALOMY
# [32] = post-emergence, 1,000 g/ha, evaluated after 13 days (100=total damage; 0=no damage), read-out: Percentage damage caused to weed species, AMARE
# [33] = post-emergence, 1,000 g/ha, evaluated after 13 days (100=total damage; 0=no damage), read-out: Percentage damage caused to weed species, ECHCG
# [34] = post-emergence, 1,000 g/ha, evaluated after 13 days (100=total damage; 0=no damage), read-out: Percentage damage caused to weed species, IPOHE
# [35] = post-emergence, 1,000 g/ha, evaluated after 13 days (100=total damage; 0=no damage), read-out: Percentage damage caused to weed species, SETFA
# [36] = post-emergence, 1,000 g/ha, evaluated after 13 days (100=total damage; 0=no damage), read-out: Percentage damage caused to weed species, SOLNI
SMILES,"pest or weed control at 1000 g/ha [1, 13] [%]","pest or weed control at 1000 g/ha [2, 14] [%]","pest or weed control at 1000 g/ha [3, 15] [%]","pest or weed control at 1000 g/ha [4, 16] [%]","pest or weed control at 1000 g/ha [5, 17] [%]","pest or weed control at 1000 g/ha [6, 18] [%]","pest or weed control at 1000 g/ha [7, 19] [%]","pest or weed control at 1000 g/ha [8, 20] [%]","pest or weed control at 1000 g/ha [1, 25] [%]","pest or weed control at 1000 g/ha [2, 26] [%]","pest or weed control at 1000 g/ha [3, 27] [%]","pest or weed control at 1000 g/ha [4, 28] [%]","pest or weed control at 1000 g/ha [5, 29] [%]","pest or weed control at 1000 g/ha [6, 30] [%]","pest or weed control at 1000 g/ha [7, 31] [%]","pest or weed control at 1000 g/ha [8, 32] [%]","pest or weed control at 1000 g/ha [9, 33] [%]","pest or weed control at 1000 g/ha [10, 34] [%]","pest or weed control at 1000 g/ha [11, 35] [%]","pest or weed control at 1000 g/ha [12, 36] [%]",other results
"COC(=O)c1nc(-c2ccc(C(F)(F)F)cc2)nc(NCc2ccco2)c1Cl [Compound 233-48, 5-Chloro-4-(furan-2-ylmethylamino)-6-methoxycarbonyl-2-(4-trifluoromethyl-phenyl)pyrimidine]",30,100,20,60,20,100,20,80,–,–,–,–,–,–,–,–,–,–,–,–,"pest or weed control at 1000 g/ha [9, 21]: 30%; pest or weed control at 1000 g/ha [10, 22]: 70%; pest or weed control at 1000 g/ha [11, 23]: 10%; pest or weed control at 1000 g/ha [12, 24]: 80%"
"COC(=O)c1nc(C2CC2)nc(NCCc2cccs2)c1Cl [Compound 4-224, 5-Chloro-2-cyclopropyl-6-methoxycarbonyl-4-[2-(thiophen-2-yl)ethylamino]-pyrimidine]",–,–,–,–,–,–,–,–,0,20,0,70,0,30,10,100,10,50,30,70,–
"COC(=O)c1nc(C2CC2)nc(N[C@@H](CC2CCCCC2)C(=O)OC)c1Cl [4-282 (S), 5-Chloro-4-[(1S)-2-cyclohexyl-1-methoxycarbonyl-ethylamino]-2-cyclopropyl-6-methoxycarbonyl-pyrimidine]",–,–,–,–,–,–,–,–,10,90,30,80,20,90,20,100,20,80,60,80,–
"COC(=O)c1nc(C2CC2)nc(NC2(/C=C/c3ccc(F)cc3F)CC2)c1Cl [Compound 4-31, 5-Chloro-2-cyclopropyl-4-{1-[2-(2,4-difluoro-phenyl)-ethenyl]-cyclopropylamino}-6-methoxy-carbonylpyrimidine]",–,–,–,–,–,–,–,–,0,80,0,70,0,20,10,100,30,80,80,90,–
"CCN(Cc1ccc(Br)s1)c1nc(C2CC2)nc(C(=O)OC)c1Cl [Compound 6-142, 4-[N-(5-bromothiophen-2-ylmethyl)-N-ethyl-amino]-5-chloro-2-cyclopropyl-6-methoxycarbonyl-pyrimidine]",0,50,0,60,10,10,30,100,–,–,–,–,–,–,–,–,–,–,–,–,"pest or weed control at 1000 g/ha [9, 21]: 60%; pest or weed control at 1000 g/ha [10, 22]: 100%; pest or weed control at 1000 g/ha [11, 23]: 90%; pest or weed control at 1000 g/ha [12, 24]: 90%"
COC(=O)c1nc(C2CC2)nc(NC2(c3ccc(Cl)cc3Cl)CC2)c1Cl [Compound 4-6],–,–,–,–,–,–,–,–,0,40,0,10,0,20,20,100,20,60,0,40,–
"Cc1ccc(CNc2nc(C3CC3)nc(C(=O)O)c2Cl)o1 [Compound 1-135, 5-Chloro-2-cyclopropyl-4-(5-methylfuran-2-ylmethylamino)-pyrimidine-6-carboxylic acid]",–,–,–,–,–,–,–,–,80,100,90,100,90,100,80,100,70,100,80,100,–
"COC(=O)c1nc(C2CC2)nc(NCC2CC2)c1Cl [Compound 4-43, 5-Chloro-2-cyclopropyl-4-cyclopropylmethyl-amino-6-methoxycarbonyl-pyrimidine]",–,–,–,–,–,–,–,–,70,90,70,80,70,90,60,100,70,100,100,90,–
"COC(=O)c1nc(Cl)nc(NCC2CC2)c1Cl [Compound 207-31, 4-Cyclopropylmethyl-amino-2,5-dichloro-6-methoxycarbonyl-pyrimidine]",0,20,0,0,0,10,10,50,–,–,–,–,–,–,–,–,–,–,–,–,"pest or weed control at 1000 g/ha [9, 21]: 0%; pest or weed control at 1000 g/ha [10, 22]: 10%; pest or weed control at 1000 g/ha [11, 23]: 40%; pest or weed control at 1000 g/ha [12, 24]: 60%"
